# Results from patent US12139531B2, “Compositions and methods useful in promoting milk production” (The Regents of the University of California, priority 2019, dated 2024).
# “Also recorded” adds a separate entry of the source.
# B1: bovine ROBO1-Ig5: bovine ROBO1-Ig5 construct (Bos taurus ROBO1-Ig5, SEQ ID NO: 2) (protein, listed as Bos taurus)
# chain: MIAEPAHFYLFGLICLCSGSRLRQEDFPPRIVEHPSDLIVSKGEPATLNCKAEGRPTPTIEWYKGGERVETDKDDPRSHRMLLPSGSLFFLRIVHGRKSRPDEGVYVCVARNYLGEAVSHNASLEVAILRDDFRQNPSDVMVAVGEPAVMECQPPRGHPEPTISWKKDGSPLDDKDERITIRGGKLMITYTRKSDAGKYVCVGTNMVGERESEVAELTVLERPSFVKRPSNLAVTVDDSAEFKCEARGDPVPTVRWRKDDGELPKSRYEIRDDHTLKIRKVTAGDMGSYTCVAENMVGKAEASATLTVQVGSEPPHFVVKPRDQVVALGRTVTFQCEATGNPQPAIFWRREGSQNLLFSYQPPQSSSRFSVSQTGDLTITNVQRSDVGYYICQTLNVAGSIITKAYLEVTDVIADRPPPVIRQGPVNQTVAVDGTLVLSCVATGSPVPTILWRKDGVLVSTQDSRIKQLETGVLQIRYAKLGDTGRYTCIASTPSGEATWSAYIEVQEF
# B2: DCC-Ig4: extracellular domain of Deleted in Colorectal Cancer comprising four Ig domains, HA tagged, negative control (protein, listed as Rattus norvegicus)
# chain: FTSLHFVSEPSDAVTMRGGNVLLNCSAESDRGVPVIKWKKDGLILALGMDDRKQQLPNGSLLIQNILHSRHHKPDEGLYQCEASLGDSGSIISRTAKVMVAGPLRFLSQTESITAFMGDTVLLKCEVIGDPMPTIHWQKNQQDLNPIPGDSRVVVLPSGALQISRLQPGDSGVYRCSARNPASTRTGNEAEVRILSDPGLHRQLYFLQRPSNVIAIEGKDAVLECCVSGYPPPSFTWLRGEEVIQLRSKKYSLLGGSNLLISNVTDDDSGTYTCVVTYKNENISASAELTVLVPPWFLNHPSNLYAYESMDIEFECAVSGKPVPTVNWMKNGDVVIPSDYFQIVGGSNLRILGVVKSDEGFYQCVAENEAGNAQSSAQLI
# modifications: HA tag
# notes: extracellular domain of Deleted in Colorectal Cancer comprising four Ig domains, HA tagged, negative control
# Assays:
# Notch signaling = test: In vivo gamma secretase inhibitor treatment; RT-qPCR on FACS-purified alveolar progenitor cells; set-up: species or system mice; conditions: GSI-treated vs vehicle-treated
# Method: (§1) In further work, Notch signaling was inhibited to attempt to reverse the Robo1−/− phenotype. A γ-inhibitor that has been previously employed successfully in vivo to inhibit Notch in several different organs^26-28, including the mammary gland^29, was selected. Mature virgin animals were treated for […] with 10 mg/kg of the GSI or vehicle control^29 (FIG. 4C). After the treatment, mammary glands were harvested and analyzed by FACS and qPCR. It was observed that Robo1−/− mammary glands contain a higher number of alveolar progenitor cells relative to WT controls (FIG. 4D). […] GSI treatment had no effect on the number of alveolar progenitor cells in WT animals (FIG. 4D).
# Robo1−/− alveolar progenitor cells (AVPs) expressed higher levels of Hey1 and Hes1 with vehicle treatment compared to AVPs from vehicle-treated WT animals (FIG. 4E). […] Vehicle-treated Robo1−/− alveolar progenitor cells (AVPs) expressed lower levels of Elf5 than AVPs from vehicle-treated WT animals (FIG. 4E). This is consistent with the observation of lower levels of ELF5 expression in Robo1−/− compared to Robo1+/+ mammary glands (FIG. 2H), and lower Elf5 in Robo1 knockdown compared to control (Scr) HC11 cells (FIG. 3C). […] In the absence of Robo1, NOTCH4 is activated—an effect that is reversed by either pharmacological inhibition of Notch signaling (FIGS. 4E, 3E, 3F, 3I-K) or knockdown of Notch4 gene expression (FIGS. 3F,G).
# (§2) GSI inhibitor (R04929097; MedchemExpress) was orally administer at 10 mg/kg for 5 days as described^29. Mammary glands were harvest after 5 days of GSI or vehicle treatment and prepared for single cell analysis. Purified populations were collected and processed for RNA. Purified population numbers were analyzed using FlowJo.
# (§3) Total RNA was harvested from cells lysed in TRIzol reagent (Invitrogen) and phase separated according to manufacturer's protocol with an additional overnight RNA precipitation stem in ethanol (Macias et al., 2011). The RNA was further purified with TURBO DNase (Ambion) treatment. Total RNA quality was analyzed by agarose gel electrophoresis and quantified with an ND-1000 spectrophotometer (NanoDrop). cDNA libraries were prepared from 1 μg of total RNA using iScript cDNA synthesis kit (BioRad). Quantitative RT-PCR was performed in triplicates using light Cycler 480 SYBR Green I Master (Roche) and quantified using BioRad CFX'Connect Real-Time System and CFX Manager software (BioRad). Results were normalized to GAPDH.
# NOTCH4 = test: Cell fractionation and Western blot for HES1 and NOTCH4-ICD in HC11 cells; format: cell-based, mouse; conditions: siR1+GSI, primed/differentiated HC11 cells, nuclear fraction
# Method: Notch receptor activation can be regulated through direct interactions with binding partners^24. […] To address this possibility, co-immunoprecipitation experiments were performed using MBA-MD-231 cells lysates, which express detectable levels of all four Notch receptors (NOTCH1-4). Endogenous ROBO1 co-immunoprecipitated with NOTCH4, but not […], NOTCH2 or NOTCH3 (FIG. 3H and data not shown). Next, the expression and subcellular localization of the NOTCH4 intracellular domain (N4-ICD) and HES1 was examined in control (Scr) and Robo1 (siR1) knockdown HC11 cells. Expression of Robo1 was inhibited in HC11 cells that were then primed for differentiation as described above. […] This effect was not observed in control Robo1 knockdown cells engineered to overexpress Robo1 (siR1+o/e) or cells treated with the γ-secretase inhibitor GSI (siR1+GSI) (FIGS. 3I-3K).
# To examine the effects of ROBO1-ECD fragments on Notch signaling, HC11 cells were treated with ROBO1-ECD fragments and Notch effector expression assessed. […] In addition, HC11 cells were treated with ROBO-Ig5 during differentiation. These cells were then fractionated and a Western blot performed to detect HES1 and NOTCH4-ICD (FIG. 8B).
# Protein lysates were prepared by directly lysing adherent cells in 1× sample buffer supplemented with 5% beta-mercaptoethanol and boiled for 5 minutes. Protein lysate was resolved by SDS-PAGE and transferred to a PVDF for 90 minutes at 400 mA or overnight at 30 mA. Primary antibodies were used at the concentration indicated in Table 1 and incubated overnight at 4° C. HRP conjugated secondary antibodies (Jackson Labs) were used at 1:3000 and incubated for 45 minutes at room temp. All proteins were detected using Clarity ECL (BioRad) using a BioRad Chemi-Doc MP Imager and quantified using ImageLab software as previously described a.
# HC11 cells [1] = test: HC11 dome assay (milk dome formation on differentiation in DIP media); format: cell-based, mouse; conditions: for dome formation in response to a titration of ECD fragments: HC11 cells, increasing ECD concentration
# Method: To investigate ROBO1 function during alveologenesis, Robo1 gene expression was inhibited in HC11 cells (Robo1 KD). HC11 cells are a well-established, prolactin-responsive model of lactation,^19,20. Cells in which Robo1 gene expression was not inhibited are referred to as WT or Robo1+/+ herein. To measure milk production, cells were grown to confluence and then primed by treatment with epidermal growth factor (EGF, 10 ng/ml). The EGF is administered for three days in combination with charcoal-stripped fetal bovine serum, followed by one day of charcoal-stripped fetal bovine serum in the absence of EGF. These primed cells are then differentiated by treatment with dexamethasone (1 μg/ml), insulin (5 μg/ml) and prolactin (Prl, 5 μg/ml) media (DIP media) for between 3 and 5 days (FIG. 2A). Differentiation (Dif) results in the development of milk-filled domes (FIG. 2B). […] If the cells were left undifferentiated (Undif), there was little dome formation in either WT or Robo1−/− cells (FIG. 2B). Next, tissue from Robo1 knockout mice (Robo1−/−) and wild type mice (WT or Robo1+/+) mice was analyzed. Mammary glands were harvested from pregnant day 18 WT and Robo1−/− animals and alveologenesis analyzed by serially sectioning, carmine staining and then quantifying the area occupied by alveoli in sections located at top, middle and bottom portions of the tissue.
# Dome number formation in response to a titration of ROBO1 ECD fragments was quantified. […] A bovine ROBO1-Ig5 construct was also tested in this assay and, as with the rat constructs, more domes were formed in response to treatment with higher concentrations of […] (FIG. 7H).
# (§4) HC11 cells were grown in RPMI 1640 media (Gibco) supplemented with 10% fetal bovine serum (BioFluid Technologies), 5 μg/mL insulin (Sigma), and 10 ng/ml epidermal growth factor (EGF; Sigma). To induce differentiation in HC11 cells, confluent plates were given fresh media (RPMI 1640 media supplemented with 5% charcoal-stripped fetal bovine serum (BioFluid Technologies), 5 μg/mL insulin, and 10 ng/ml epidermal growth factor (EGF; Sigma) for 3 days followed by 24 hours of priming in priming medium (RPMI 1640 media supplemented with 5% charcoal-stripped fetal bovine serum (BioFluid Technologies), and 5 μg/mL insulin. After priming, DIP medium (RPMI 1640 media supplemented with 5% charcoal-stripped fetal bovine serum (BioFluid Technologies), 10^−6 M dexamethasone (Sigma), 5 μg/mL insulin, and 5 μg/mL prolactin (National Hormone and Peptide program) was added with fresh media every 24 hours.
# HC11 cells [2] = test: RT-qPCR of milk genes (WAP, Lalba) in differentiated HC11 cells; format: cell-based, mouse
# Method: To determine whether the promotion of dome formation also results in higher milk production, HC11 cells were differentiated in the presence or absence of ROBO1-ECD fragments that were added to cells simultaneously with DIP media. Cells were harvested and the expression of WAP and Lalba assessed by RT-qPCR. […] WAP expression levels were not increased in cells treated with DCC-Ig4 (FIG. 7K). Next, Western blot analysis of WAP and PLIN2 was performed on cells treated with ROBO1-Ig5 and ROBO1-Ecto.
# as §4
# as §3, with “Results were normalized to GAPDH.” left out
# Notch = test: In vivo gamma secretase inhibitor treatment; number of FACS-purified alveolar progenitor cells; set-up: species or system mice; conditions: 10 mg/kg GSI orally, mature virgin
# Method: as §1
# Mechanically dissociated inguinal and thoracic mammary fat pads were prepared into cell suspension for FACS as described^17. AVPs were isolated using FITC-CD14 (clone Sa14-2; BioLegend) and […] (clone 2B8; BioLegend) as described^14.
# as §2
# HEK-293 cells = test: Dot blot dilution assay of ROBO1-Ig5 secretion into media of transfected HEK-293 cells; format: cell-based; conditions: heparin 300 ng/ml, media days two, four, six
# Text: Three recombinant ROBO1 ECD constructs were constructed: one comprising two immunoglobulin (Ig) domains (ROBO1-Ig2), another comprising all five Ig domains (ROBO1-Ig5), and another comprising the entire extracellular domain (ROBO1-Ecto) (FIG. 6A). In other constructs, HA (hemagglutinin), Myc, and human and mouse immunoglobulin Fc were fused to the Robo1 ECDs (FIG. 6A, 5F right). Extracellular domains of Deleted in Colorectal Cancer (DCC), a structurally similar Ig superfamily member to ROBO1, comprising either two Ig (DCC-Ig2) or four Ig (DCC-Ig4) domains and tagged with HA were constructed for use as negative controls (FIG. 6A, 5F right). Expression secretion of the constructs was confirmed by overexpressing the constructs in HEK293 cells and performing Western blots on cell lysates and media (FIG. 6B). […] Robo1-Ig5 as used herein was expressed in HEK-293 cells in the absence and presence of heparin (300 ng/ml). Media were collected from these ROBO1-Ig5 overexpressing cells on days two, four and six following plasmid transfection. Dot blot dilution assays of the collected media were performed to evaluate the relative secretion of this soluble ROBO1 ECD (FIG. 6C).
molecule,measurement,setting,value
CC(C)(C(=O)NCC(F)(F)C(F)(F)F)C(=O)N[C@@H]1C(=O)Nc2ccccc2-c2ccccc21 [GSI],Hes1 expression in AVPs,Notch signaling; Robo1+/+ animals,less expression; also recorded: decreased
same,Hey1 expression in AVPs,Notch signaling; Robo1+/+ animals,less expression; also recorded: decreased
same,Elf5 expression in AVPs,Notch signaling; Robo1-/- animals,higher; also recorded: rescued
same,Hes1 expression in AVPs,Notch signaling; Robo1-/- animals,lower; also recorded: rescued
same,Hey1 expression in AVPs,Notch signaling; Robo1-/- animals,lower; also recorded: rescued
same,higher nuclear HES1 in Robo1 knockdown cells,NOTCH4,not observed; also recorded: rescues the effect
same,higher nuclear NOTCH4 intracellular domain (N4-ICD) in Robo1 knockdown cells,NOTCH4,not observed; also recorded: rescues the effect
same,decreased dome formation in Robo1 knockdown (KD) HC11 cells,HC11 cells [1]; Robo1 KD HC11 cells plus GSI,rescued
same,decreased Lalba expression in Robo1 knockdown (siR1) HC11 cells,HC11 cells [2]; siR1+GSI,rescued
same,decreased WAP expression in Robo1 knockdown (siR1) HC11 cells,HC11 cells [2]; siR1+GSI,rescued
same,number of alveolar progenitor cells,Notch; Robo1-/- animals,same number of alveolar progenitor cells as WT animals
same,number of alveolar progenitor cells,Notch; WT animals,no effect
heparin,secretion of soluble ROBO1-Ig5,HEK-293 cells,trend of greater secretion
same,secretion of soluble ROBO1-Ig5,HEK-293 cells; listed as Heparin,modestly increases
B1,dome formation in response to a titration of ECD fragments,HC11 cells [1],more domes; also recorded: increasing dome formation
B2,dome formation in response to a titration of ECD fragments,HC11 cells [1],not observed
same,WAP gene expression by RT-qPCR,"HC11 cells [2]; HC11 cells, ECD fragments added simultaneously with DIP media, DCC-Ig4 0.7 μM",not increased; also recorded: no change
